Source: patent publication US20240108738A1, “BICYCLIC PEPTIDE LIGANDS SPECIFIC FOR NK CELLS” (Bicycle Tx Limited, priority 2021, published 2024)
Numbered stars: 1 amine (or outer) side, 2 acyl side, 3 side chain; on linkers, the order of the positions; unused ones are H or OH. Bridge positions count the residues as written; N and C are the ends. Square brackets hold non-standard residues; d marks the D form. Peptide text beside a SMILES is read from it. TATA = O=C(CC[*:1])N1CN(C(=O)CC[*:2])CN(C(=O)CC[*:3])C1; Dopa = N[C@@H](Cc1ccc(O)c(O)c1)C(=O)O; Cba = N[C@@H](CC1CCC1)C(=O)O

These molecules were tested against T1, Fc-tagged human NKp46 (Homo sapiens, UniProt O76036) (assay: NKp46 SPR assay (Method 1 and/or Method 2)). Conditions: SPR Method 1 and/or Method 2, Table 3B.
T1 construct: purchased ACROBiosystems NC1-H5257
Format: binding
Description: SPR experiments were performed to determine ka (M^−1s^−1), kd (s^−1), KD (nM) values (where measurable) of various bicyclic peptides to immobilised NKp46.
For analysis of peptide binding to NKp46, a Biacore 3000 instrument was used with a Cytiva Streptavidin chip. Capture of the protein (recombinant human NKp46-Fc fusion biotinylated via Avi-tag) was carried out at 25° C. with HBS-N (10 mM HEPES, 0.15 M NaCl, pH 7.4) as the running buffer and biotinylated NKp46 was captured to a level of 400-800 RU using a dilution of protein to 0.2 μM in buffer. Buffer was then changed to PBS/0.05% Tween 20 and a dilution series of the peptides was prepared in this buffer with a final DMSO concentration of 0.5% with a top peptide concentration of 100 nM-5000 nM and 6 further 2 or 3-fold dilutions. The SPR analysis was run at 25° C. and a flow rate of 50 μl/min with 60 seconds association and 200-400 seconds dissociation time. Data were corrected for DMSO excluded volume effects. All data were double-referenced for blank injections and reference surface using standard processing procedures and data processing and kinetic fitting were performed using Scrubber software, version 2.0c (BioLogic Software). Data were fitted using simple 1:1 binding model allowing for mass transport effects where appropriate.
Peptides were tested against Fc-tagged human NKp46 (ACROBiosystems, cat no. NC1-H5257).
For analysis of peptide binding, a Biacore 8k+ instrument was used with a CM5 chip (Cytiva). All experiments were carried out at 25° C. Anti-human IgG (Fc) antibody (Cytiva) was immobilized on all flow cells by standard amine coupling chemistry. The running buffer was HBS-N(Cytiva, 10 mM HEPES, 0.15 M NaCl, pH 7.4) and the flow rate was 10 μL/min. The carboxymethyl dextran surface was activated with a 1:1 ratio of 0.4 M 1-ethyl-3-(3-dimethylaminopropyl) carbodiimide hydrochloride (EDC)/0.1 M N-hydroxy succinimide (NHS) (Cytiva) for 420s. […] Residual activated groups were blocked with a 420 s injection of 1 M ethanolamine (pH 8.5). The final surface density was 3000-5000 RU. Fc-tagged human NKp46 was diluted to 0.1 μM in HBS-N and was captured on flow cell 2 only of the sensor chip at a flow rate of 10 μL/min to 500-1000 RU. The buffer was then changed to PBS-P+(Cytiva) supplemented with 2% DMSO. […] The flow rate was 50 μL/min with 60 s association and 400 s dissociation. Data were corrected for DMSO volume exclusion effects. All data were double-referenced against blank injections and reference surface response using standard processing procedures. Data processing and kinetic fitting was performed using Biacore Insight Evaluation Software with Extended Screening and Characterization Extension (Cytiva). Data were fitted using steady state affinity 1:1 binding model to determine KD. Data were fitted using kinetic 1:1 binding model to determine kinetic constants where appropriate.

T1 sequence (O76036 22-304): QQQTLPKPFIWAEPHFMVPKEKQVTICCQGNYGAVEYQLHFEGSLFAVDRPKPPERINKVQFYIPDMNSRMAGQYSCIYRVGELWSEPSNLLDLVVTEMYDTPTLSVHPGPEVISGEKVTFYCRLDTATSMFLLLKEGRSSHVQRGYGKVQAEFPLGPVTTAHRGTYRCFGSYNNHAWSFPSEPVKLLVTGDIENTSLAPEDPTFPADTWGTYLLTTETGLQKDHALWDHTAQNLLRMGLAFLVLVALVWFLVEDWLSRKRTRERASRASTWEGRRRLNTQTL

| Kd | SMILES |
| --- | --- |
| 2510 nM | CSCC[C@@H]1NC(=O)[C@@H]2CSCCC(=O)N3CN(CN(C3)C(=O)CCSC[C@H](N)C(=O)N[C@@H](CC(N)=O)C(=O)N[C@@H](CC(C)C)C(=O)N[C@@H](CCC(N)=O)C(=O)N[C@@H](C)C(=O)N3CCC[C@H]3C(=O)N2)C(=O)CCSC[C@@H](C(=O)N[C@@H](C)C(N)=O)NC(=O)[C@H](C(C)C)NC(=O)[C@H](CCCCN)NC(=O)CNC(=O)[C@H]([C@@H](C)O)NC(=O)[C@H](CC(C)C)NC1=O [BCY19694, (SEQ ID NO: 4)-A] (H-CNLQAPCMLTGKVCA-NH2; linker 1-7-14 via TATA) |
| 17 nM | CC(=O)N[C@@H]1CSCCC(=O)N2CN3CN(C2)C(=O)CCSC[C@H](NC(=O)[C@H](CC(C)C)NC(=O)[C@H](Cc2ccc(O)cc2)NC(=O)[C@H](CC(=O)O)NC(=O)[C@@H]2CCCN2C(=O)[C@H](CC2CCC2)NC(=O)[C@H](Cc2ccc(O)cc2)NC1=O)C(=O)N[C@H](C)C(=O)N[C@@H](CC(=O)O)C(=O)N[C@@H](CCC(=O)O)C(=O)N[C@@H](Cc1ccc(O)cc1)C(=O)N[C@H](C(N)=O)CSCCC3=O [BCY19693, Ac-(SEQ ID NO: 157)] (Ac-[dC]Y[Cba]PDYLC[dA]DEYC-NH2; linker 1-8-13 via TATA; C-terminus assumed) |
| 3180 nM | CC[C@H](C)[C@@H]1NC(=O)CNC(=O)[C@H](Cc2c[nH]c3ccccc23)NC(=O)[C@H](CCC(N)=O)NC(=O)[C@@H]2CSCCC(=O)N3CN(CN(C3)C(=O)CCSC[C@H](N)C(=O)N[C@@H](CC(=O)O)C(=O)N[C@@H](CC(C)C)C(=O)N[C@@H]([C@@H](C)O)C(=O)N[C@@H]([C@@H](C)O)C(=O)N[C@@H](Cc3c[nH]cn3)C(=O)N[C@@H](CC(N)=O)C(=O)N2)C(=O)CCSC[C@@H](C(N)=O)NC1=O [BCY18262, (SEQ ID NO: 11)] |
| 2880 nM | CSCC[C@@H]1NC(=O)[C@H](CCCCN)NC(=O)[C@@H]2CCCN2C(=O)[C@H](Cc2c[nH]cn2)NC(=O)[C@H]([C@@H](C)O)NC(=O)[C@H](CC(N)=O)NC(=O)[C@@H]2CCCN2C(=O)[C@@H]2CSCCC(=O)N3CN(CN(C3)C(=O)CCSC[C@@H](C(=O)N[C@@H](C)C(N)=O)NC1=O)C(=O)CCSC[C@H](NC(=O)[C@H](C)N)C(=O)N[C@@H](CC(C)C)C(=O)N[C@@H](CC(C)C)C(=O)N[C@@H](Cc1c[nH]cn1)C(=O)N[C@@H](CCC(=O)O)C(=O)N[C@@H](Cc1c[nH]cn1)C(=O)N2 [BCY15104, A-(SEQ ID NO: 6)-A] (H-ACLLHEHCPNTHPKMCA-NH2; linker 2-8-16 via TATA) |
| 44 nM | CC(=O)N[C@H]1CSCCC(=O)N2CN3CN(C2)C(=O)CCSC[C@H](NC(=O)[C@H](CC(C)C)NC(=O)[C@H](Cc2ccc(O)cc2)NC(=O)[C@H](CC(=O)O)NC(=O)[C@@H]2CCCN2C(=O)[C@H](CC2CCC2)NC(=O)[C@H](CCO)NC1=O)C(=O)N[C@H](C)C(=O)N[C@@H](CC(=O)O)C(=O)N[C@@H](CCC(=O)O)C(=O)N[C@@H](Cc1ccc(O)cc1)C(=O)N[C@H](C(N)=O)CSCCC3=O [BCY18434, Ac-(SEQ ID NO: 137)] |
| 44 nM | CC(=O)N[C@H]1CSCCC(=O)N2CN3CN(C2)C(=O)CCSC[C@H](NC(=O)[C@H](CC(C)C)NC(=O)[C@H](Cc2ccc(O)c(O)c2)NC(=O)[C@H](CC(=O)O)NC(=O)[C@@H]2CCCN2C(=O)[C@H](CC2CCC2)NC(=O)[C@H](Cc2ccc(O)cc2)NC1=O)C(=O)N[C@H](C)C(=O)N[C@@H](CC(=O)O)C(=O)N[C@@H](CCC(=O)O)C(=O)N[C@@H](Cc1ccc(O)cc1)C(=O)N[C@H](C(N)=O)CSCCC3=O [BCY19686, Ac-(SEQ ID NO: 150)] (Ac-CY[Cba]PD[Dopa]LC[dA]DEYC-NH2; linker 1-8-13 via TATA; C-terminus assumed) |
| 1260 nM | CC[C@H](C)[C@@H]1NC(=O)[C@@H]2CSCCC(=O)N3CN(CN(C3)C(=O)CCSC[C@@H](C(=O)N[C@@H](C)C(N)=O)NC(=O)[C@H](C(C)C)NC(=O)CNC(=O)[C@H](Cc3c[nH]c4ccccc34)NC1=O)C(=O)CCSC[C@H](NC(=O)[C@H](C)N)C(=O)N[C@@H](CC(=O)O)C(=O)N[C@@H](CC(C)C)C(=O)N[C@@H]([C@@H](C)O)C(=O)N[C@@H]([C@@H](C)O)C(=O)N[C@@H](Cc1c[nH]cn1)C(=O)N[C@@H](CC(N)=O)C(=O)N2 [BCY14458, A-(SEQ ID NO: 104)-A] (H-ACDLTTHNCIWGVCA-NH2; linker 2-9-14 via TATA; C-terminus assumed) |
| 6410 nM | CSCC[C@@H]1NC(=O)[C@@H]2CSCCC(=O)N3CN(CN(C3)C(=O)CCSC[C@H](N)C(=O)N[C@@H](CC(N)=O)C(=O)N[C@@H](CC(C)C)C(=O)N[C@@H](CCC(N)=O)C(=O)N[C@@H](C)C(=O)N3CCC[C@H]3C(=O)N2)C(=O)CCSC[C@@H](C(N)=O)NC(=O)[C@H](C(C)C)NC(=O)[C@H](CCCCN)NC(=O)CNC(=O)[C@H]([C@@H](C)O)NC(=O)[C@H](CC(C)C)NC1=O [BCY18295, (SEQ ID NO: 4)] (H-CNLQAPCMLTGKVC-NH2; linker 1-7-14 via TATA; C-terminus assumed) |
| 2760 nM | CC(C)C[C@@H]1NC(=O)[C@@H]2CSCCC(=O)N3CN(CN(C3)C(=O)CCSC[C@@H](C(=O)N[C@@H](C)C(N)=O)NC(=O)[C@H](C(C)C)NC(=O)[C@H](CCCCN)NC(=O)CNC(=O)[C@H]([C@@H](C)O)NC(=O)[C@H](Cc3c[nH]cn3)NC1=O)C(=O)CCSC[C@H](NC(=O)[C@H](C)N)C(=O)N[C@@H](CC(N)=O)C(=O)N[C@@H](CC(C)C)C(=O)N[C@@H](CCC(N)=O)C(=O)N[C@@H](CCC(N)=O)C(=O)N[C@@H](C)C(=O)N2 [BCY14454, A-(SEQ ID NO: 63)-A] (H-ACNLQQACLHTGKVCA-NH2; linker 2-8-15 via TATA; N-terminus assumed) |
| 1070 nM | CSCC[C@@H]1NC(=O)[C@@H]2CSCCC(=O)N3CN(CN(C3)C(=O)CCSC[C@@H](C(=O)N[C@@H](C)C(N)=O)NC(=O)[C@H](C(C)C)NC(=O)[C@H](CCCCN)NC(=O)CNC(=O)[C@H]([C@@H](C)O)NC(=O)[C@H](CCC(N)=O)NC1=O)C(=O)CCSC[C@H](NC(=O)[C@H](C)N)C(=O)N[C@@H](CC(N)=O)C(=O)N[C@@H](CC(C)C)C(=O)N[C@@H](CCC(N)=O)C(=O)N[C@@H](C)C(=O)N1CCC[C@H]1C(=O)N2 [BCY15098, A-(SEQ ID NO: 3)-A] |
| 2750 nM | CC(C)C[C@@H]1NC(=O)[C@H](CC(N)=O)NC(=O)[C@@H](NC(=O)[C@H](C)N)CSCCC(=O)N2CN3CN(C2)C(=O)CCSC[C@H](NC(=O)[C@@H]2CCCN2C(=O)[C@H](C)NC(=O)[C@H](CCC(N)=O)NC1=O)C(=O)N[C@@H](CC(C)C)C(=O)N[C@@H](CC(C)C)C(=O)N[C@@H]([C@@H](C)O)C(=O)NCC(=O)N[C@@H](CCCCN)C(=O)N[C@@H](C(C)C)C(=O)N[C@H](C(=O)N[C@@H](C)C(N)=O)CSCCC3=O [BCY18313, A-(SEQ ID NO: 75)-A] (H-ACNLQAPCLLTGKVCA-NH2; linker 2-8-15 via TATA; N-terminus assumed) |
| 1530 nM | CSCC[C@@H]1NC(=O)[C@@H]2CSCCC(=O)N3CN(CN(C3)C(=O)CCSC[C@@H](C(=O)N[C@@H](C)C(N)=O)NC(=O)[C@H](C(C)C)NC(=O)[C@H](C)NC(=O)CNC(=O)[C@H]([C@@H](C)O)NC(=O)[C@H](CC(C)C)NC1=O)C(=O)CCSC[C@H](NC(=O)[C@H](C)N)C(=O)N[C@@H](CC(N)=O)C(=O)N[C@@H](CC(C)C)C(=O)N[C@@H](CCC(N)=O)C(=O)N[C@@H](C)C(=O)N1CCC[C@H]1C(=O)N2 [BCY18304, A-(SEQ ID NO: 68)-A] (H-ACNLQAPCMLTGAVCA-NH2; linker 2-8-15 via TATA; N-terminus assumed) |
